Results on one substance are retold here after patent US12516331B2, “Monocyte-specific aptamers and uses thereof for enhancing drug delivery to cancer” (Academia Sinica, priority 2020, dated 2026).

Data set [1] concerns human monocyte cell line U937. As to the kind of experiment: Flow cytometry binding of Cy5-labeled aptamers to human monocyte cell line U937. The following applies: U937 cells, 200 nM Cy5-aptamer, 4° C., 30 minutes (FIG. 3). The method, then:
(§1) To confirm that J10 binding, but not S2 binding, was selective to human monocytes in vitro, Cy5-labeled J10 and S2 were also incubated with the human monocyte cell lines, THP-1 and U937, and human umbilical cord endothelial cells (HUVEC), which were used as a negative control. In brief, 5×10^5 of each selected cell line was pre-mixed in a bloc king buffer (20% FBS and 10% salmon sperm DNA in PBS) at 4° C. for 30 minutes. After that, the cells were reacted with 200 nM Cy5-J10 or Cy5-S2 in the blocking buffer at 4° C. for 30 minutes. Finally, the sample was subjected to flow cytometry using standard protocols known in the art.
A general note: Flow cytometry measures light scatter and fluorescence of single cells or particles in a stream.

In data set [2] the test system is RAW264.7 (murine monocyte cell line). Briefly: Flow cytometry binding of Cy5-labeled aptamers to monocyte cell line RAW264.7. Also noted: species or system mouse. As to conditions: RAW264.7 cells, 200 nM Cy5-aptamer, 4° C., 30 minutes, flow cytometry (FIG. 2A). As to the method: (§2) To confirm that J10, but not S2, was capable of binding selectively to monocytes in vitro, the J10 and S2 aptamers were first labeled with the fluorescent labeling reagent Cy5 ((2Z)-2-[(2E,4E)-5-[1-(5-Carboxypentyl)-3,3-dimethyl-5-sulfoindol-1-ium-2-yl]penta-2,4-dienylidene]-1-ethyl-3,3-dimethylindole-5-sulfonate) and then incubated with monocyte cells lines RAW264.7 and J774A.1. Cy5-labeled J10 and S2 were also incubated with the mouse endothelial cell line SVEC which was used as a negative selection. In brief, 5×10^5 of each selected cell line was pre-mixed in a bloc king buffer (20% FBS and 10% salmon sperm DNA in PBS) at 4° C. for 30 minutes. After that, the cells were reacted with 200 nM Cy5-J10 or Cy5-S2 in the blocking buffer at 4° C. for 30 minutes. Finally, the sample was subjected to flow cytometry using standard protocols known in the art. […] Together, the data in FIGS. 2A and 2B confirmed that J10, but not S2, was capable of binding selectively to monocytes in vitro and being carried to the injured site in vivo.

A short description of data set [3]: PCR analysis of aptamer targeting to the injured site in the mouse cardiac ischemia reperfusion (I/R) model. The class given is in vivo. The following applies: intravenous injection, mouse cardiac I/R model (FIG. 2B). An excerpt:
FIGS. 2A-2D include diagrams depicting the specificity of J10 aptamer to monocytes. FIG. 2A: depicts a graph showing the amount of Cy5-labeled J10 aptamer and Cy5-labeled S2 aptamer in the monocyte cells lines RAW264.7 and J774A.1 and the mouse endothelial cell line SVEC as measured by flow cytometry. Mouse endothelial cell line SVEC was used as a negative selection. The S2 aptamer had the same nucleotide composition as J10 aptamer but randomized the sequence. Two-way ANOVA with a Tukey adjustment was used to analyze the data where *P<0.05; **P<0.01; ***P<0.001 were significant. FIG. 2B: Top panel depicts images showing the accumulating amount of J10 and S2 aptamers in infarct area of the injured hearts as measured by PCR. Bottom panel depicts quantification of PCR results. Unpaired Student's t-test was used to analyze the data where *P<0.05; **P<0.01; ***P<0.001 were significant. FIG. 2C: depicts images showing in vivo targeting of in vivo targeting of S2 aptamer-QD655 (top panel) J10 aptamer-QD655 (bottom panel) to circulating CX3CR1-GFP^+ monocytes via intravital imaging. The aptamer was conjugated with quantum dots QD655. Scale bars shown represent 100 μm. FIG. 2D: depicts a graph showing ex vivo targeting of J10 aptamer against circulating monocytes examined with flow cytometry to analyse the amount of Cy5-J10 associated with CD45^+ and CD11b^+ cells isolated from peripheral blood. […]

Data set [4] deals with human monocyte cell line THP-1. Briefly: Flow cytometry binding of Cy5-labeled aptamers to human monocyte cell line THP-1. The following applies: THP-1 cells, 200 nM Cy5-aptamer, 4° C., 30 minutes (FIG. 3). As to the method: as §1
Data set [5] relates to circulating myeloid cells (CD45+ CD11b+ cells). As to the kind of experiment: Ex vivo binding of Cy5-aptamer to peripheral blood cells by flow cytometry. On the set-up: species or system mouse. As to conditions: peripheral blood of healthy mice, 2 μM Cy5-Apt, 30 minutes at 4° C. (FIG. 2D). The method, then: To test ex vivo binding specificity and affinity, 100 μL peripheral blood from healthy mice was withdrawn via the submandibular vein, collected in EDTA-containing anticoagulant tubes (BD Vacutainer), and incubated with 2 mL ACK lysing buffer for 10 minutes to lyse the red blood cells. After that, 2% FBS in PBS was added to stop the reaction. Following centrifugation (300 g for 3 minutes at 4° C.) the supernatants were removed. One million cells were blocked by CD16/CD32 Fc blocking antibody (1:100) after incubation for 20 minutes. Then the cells were stained for CD45 (PE-Cy7; 1:100 Biolegend), CD11b (PE; 1:200 Biolegend) and 2 μM Cy5-Apt for 30 minutes at 4° C. Finally, the cells were washed by 2% FBS in PBS and subjected to flow cytometry using standard protocols known in the art.

Data set [6] has as its system mouse endothelial cell line SVEC. Briefly: Flow cytometry binding of Cy5-labeled aptamers to endothelial cell line SVEC (negative selection). The following applies: 200 nM Cy5-aptamer, 4° C., 30 minutes, flow cytometry (FIG. 2A). As to the method: as §2
The subject of data set [7] is J774A.1 (murine monocyte cell line). As to the kind of experiment: Flow cytometry binding of Cy5-labeled aptamers to monocyte cell line J774A.1. On the set-up: species or system mouse. As to conditions: J774A.1 cells, 200 nM Cy5-aptamer, 4° C., 30 minutes, flow cytometry (FIG. 2A). As to the method:
as §2

In the case of “J10: monocyte-targeting DNA aptamer identified by cell-SELEX; sequence in Table 1; Cy5-labeled for flow cytometry (DNA CAATAGAGTCGTACAGGTCGACGCT; Cy5-labeled DNA aptamer, label position not given here) [Aptamer J10]”, the “binding affinity (flow cytometry)” value in data set [1] and in data set [4] was “high binding affinity” each time. In addition, the “percentage of Cy5-labeled monocytes” value in data set [2] and in data set [7] was “significantly higher than the percentage of Cy5-labeled S2 monocytes” throughout. Besides, the “in vivo targeting to the injured site (PCR)” value in data set [3] is given as “confirmed in vivo targeting ability”. In addition, the “ex vivo affinity to CD45+ CD11b+ cells” value in data set [5] is recorded as “high affinity”. Moreover, the “detection of Cy5-labeled aptamer in endothelial cells” value in data set [6] is “no detection”.
